Measurements: patent US4555403A, “Pharmacologically active peptides and medicaments containing the same” (priority 1979, dated 1985)
Non-standard residues stand in square brackets, D forms with d. Residues, ends and D or L forms follow the SMILES beside them.

Tests used:
[1] = stability of opiate-like activity upon incubation with rat brain homogenate and brain-supernate; format: in vitro ADME; details: for opiate-like activity after 30 minutes of incubation / opiate-like activity after 120 minutes of incubation: brain homogenate and brain-supernate, 37° C.
Description: All incubations of the substances with brain homogenate and brain-supernate take place at 37° C. The respective incubation time is terminated by heating for 10 min. at a temperature of 95° C. This heating up to 95° C. serves to destroy enzymes which are still present and which might be detrimental for the biological procedure for proving the opiate-like activity.
1-2 mg each of the β-casomorphin-5 and of the D-Ala^2 -β-casomorphin-5 according to the invention are put into 50 μl of H2 O and mixed with 300 μl each of brain homogenate and brain-supernate. A sample of each is immediately heated from 37° C. up to 95° C. prior to the incubation. Thus these samples are in contact with the active enzymes only for a very short time and their content of opiate-like activity serves as a reference value at a zero point of time.
After 15, 30, 60, and 120 min. each, further samples of the two incubated opiates are taken from the incubator and heated up to 95° C.
The guinea pig intestine test described by Kosterlitz et al supra, serves as a proving system, which also includes the opiate amounts quantitatively. […]

[2] = 0.35 μmol into the ventricle system of the brain, rats; cited from earlier work
[3] = stability of opiate-like activity towards rat blood plasma; format: in vitro ADME; details: for stability of opiate-like activity towards blood plasma: 300 μl freshly obtained rat blood plasma, 30 minutes stated for β-casomorphin-5
Description: Analogously to the above-mentioned incubation example we tested the stability of the opiate-like activity towards blood plasma. Instead of 300 μl of homogenate, we employed 300 μl of freshly obtained rat blood plasma.

[4] = analgetic effect after parenteral or oral application in rats; format: in vivo; details: up to 150 mg per kg of body weight
Description: The dose in these tests amounted up to 150 mg per kg of body weight of the rats. This disadvantage of the known peptides can be partially or completely attributed to inactivation of the substance in the blood and/or the brain.

## COC(=O)CNC(=O)[C@@H]1CCCN1C(=O)[C@H](Cc1ccccc1)NC(=O)[C@@H](CCCNC(=N)N)NC(=O)[C@@H](N)Cc1ccc(O)cc1 [D-Arg^2 -β-casomorphin-5, Tyr-D-Arg-Phe-Pro-Gly-methylester] (H-Y[dR]FPG-OMe)
[1]
  opiate-like activity after 30 minutes of incubation: still could be proven
  opiate-like activity after 120 minutes of incubation: still could be proven

## Tyr-Pro-Phe-Pro-Gly (YPFPG; printed: Tyr-Pro-Phe-Pro-Gly) [β-casomorphin-5]
[2]
  opiate-like analgesia: strong opiate-like analgesia
  time after which analgesia completely disappeared: 60 min
  time to maximum effectiveness of analgesia: ≤ 10 min
[3]
  stability of opiate-like activity towards blood plasma: already destroyed
[3]; blood plasma
  incubation period after which opiate-like activity disappears: 15 min
[1]
  opiate-like activity after 30 minutes of incubation: did not show any opiate-like activity any longer
[1]; rat brain homogenate
  incubation period after which opiate-like activity disappears: 15 min
[4]
  analgetic effect: does not show any analgetic effect

## COC(=O)CNC(=O)[C@@H]1CCCN1C(=O)[C@H](Cc1ccccc1)NC(=O)[C@@H](CCSC)NC(=O)[C@@H](N)Cc1ccc(O)cc1 [D-Met^2 -β-casomorphin-5, Tyr-D-Met-Phe-Pro-Gly-methylester] (H-Y[dM]FPG-OMe)
[1]
  opiate-like activity after 30 minutes of incubation: still could be proven
  opiate-like activity after 120 minutes of incubation: still could be proven

## COC(=O)CNC(=O)[C@@H]1CCCN1C(=O)[C@H](Cc1ccccc1)NC(=O)[C@@H](C)NC(=O)[C@@H](N)Cc1ccc(O)cc1 [D-Ala^2 -β-casomorphin-5, Tyr-D-Ala-Phe-Pro-Gly-methylester] (H-Y[dA]FPG-OMe)
[3]
  stability of opiate-like activity towards blood plasma: retained its full activity
[1]
  opiate-like activity after 30 minutes of incubation: still could be proven
  opiate-like activity after 120 minutes of incubation: still could be proven

## COC(=O)CNC(=O)[C@@H]1CCCN1C(=O)[C@H](Cc1ccccc1)NC(=O)[C@@H](CO)NC(=O)[C@@H](N)Cc1ccc(O)cc1 [D-Ser^2 -β-casomorphin-5, Tyr-D-Ser-Phe-Pro-Gly-methylester] (H-Y[dS]FPG-OMe)
[1]
  opiate-like activity after 30 minutes of incubation: still could be proven
  opiate-like activity after 120 minutes of incubation: still could be proven
